Measurements as given in ChEMBL document CHEMBL3600327, “Synthesis of a novel series of fluoroarene derivatives of artemisinin as potent antifungal and anticancer agent” (Bioorg Med Chem Lett, 2015).

Assays:
Fusarium oxysporum [1] = test: Antifungal activity against Fusarium oxysporum assessed as inhibition of mycelia growth at 400 ppm after 1 week by filter paper method relative to control; format: functional; details: 168 h, read-out: GI
Fusarium oxysporum [2] = test: Antifungal activity against Fusarium oxysporum assessed as inhibition of mycelia growth at 200 ppm after 1 week by filter paper method relative to control; format: functional; details: 168 h, read-out: GI
Fusarium oxysporum [3] = test: Antifungal activity against Fusarium oxysporum assessed as inhibition of mycelia growth at 600 ppm after 1 week by filter paper method relative to control; format: functional; details: 168 h, read-out: GI
Fusarium oxysporum [4] = test: Antifungal activity against Fusarium oxysporum assessed as inhibition of mycelia growth at 1000 ppm after 1 week by filter paper method relative to control; format: functional; details: 168 h, read-out: GI
Fusarium oxysporum [5] = test: Antifungal activity against Fusarium oxysporum assessed as inhibition of mycelia growth at 800 ppm after 1 week by filter paper method relative to control; format: functional; details: 168 h, read-out: GI
HeLa = test: Cytotoxicity against human HeLa cells measured at 48 hrs by MTT assay; format: functional, cell-based

Row | Compound | inhibition of growth at 400 ppm (Fusarium oxysporum [1]) [%] | inhibition of growth at 200 ppm (Fusarium oxysporum [2]) [%] | inhibition of growth at 600 ppm (Fusarium oxysporum [3]) [%] | inhibition of growth at 1000 ppm (Fusarium oxysporum [4]) [%] | inhibition of growth at 800 ppm (Fusarium oxysporum [5]) [%] | IC50 (HeLa) [µM]
1 | C[C@H]1[C@@H](OCC#Cc2cccc(F)c2)O[C@@H]2O[C@@]3(C)CC[C@H]4[C@H](C)CC[C@@H]1[C@@]24OO3 | 61.8 | 60 | 62 | 65.2 | 64 | 14
2 | C[C@H]1[C@@H](OCC#Cc2ccc(F)nc2)O[C@@H]2O[C@@]3(C)CC[C@H]4[C@H](C)CC[C@@H]1[C@@]24OO3 | 58.4 | 56.4 | 61 | 63.8 | 62.5 | –
3 | C[C@H]1[C@@H](OCCC#Cc2ccc(-c3ccc(F)cc3)s2)O[C@@H]2O[C@@]3(C)CC[C@H]4[C@H](C)CC[C@@H]1[C@@]24OO3 | 66.9 | 66.4 | 68 | 71 | 69.9 | 36.6
4 | C#CCCO[C@H]1O[C@@H]2O[C@@]3(C)CC[C@H]4[C@H](C)CC[C@@H]([C@H]1C)[C@@]24OO3 | 73.2 | 70 | 75.4 | 77.6 | 76.8 | –
5 | C[C@H]1[C@@H](OCC#Cc2ccc(F)cc2)O[C@@H]2O[C@@]3(C)CC[C@H]4[C@H](C)CC[C@@H]1[C@@]24OO3 | 54.4 | 53.5 | 56 | 59 | 57.6 | 26.3
6 | C[C@H]1[C@@H](OCCC#Cc2ccc(-c3ccc(F)cc3)cc2)O[C@@H]2O[C@@]3(C)CC[C@H]4[C@H](C)CC[C@@H]1[C@@]24OO3 | 67.9 | 67 | 70.2 | 72.8 | 71 | 13.1
7 | C[C@H]1[C@@H](OCC#Cc2ccccc2F)O[C@@H]2O[C@@]3(C)CC[C@H]4[C@H](C)CC[C@@H]1[C@@]24OO3 | 54.2 | 53.6 | 55.2 | 57.6 | 56.8 | 139
8 | C[C@H]1[C@@H](OCCC#Cc2ccc(-c3cccc(C(F)(F)F)c3)cc2)O[C@@H]2O[C@@]3(C)CC[C@H]4[C@H](C)CC[C@@H]1[C@@]24OO3 | 66.5 | 65.6 | 67.6 | 70.2 | 69 | –
9 | C[C@H]1[C@@H](OCCC#Cc2cccc(-c3ccc(F)cc3)c2)O[C@@H]2O[C@@]3(C)CC[C@H]4[C@H](C)CC[C@@H]1[C@@]24OO3 | 65.2 | 64 | 66.4 | 69.8 | 68 | 112
10 | C[C@@H]1CC[C@H]2[C@@H](C)C(=O)O[C@@H]3O[C@@]4(C)CC[C@@H]1[C@]32OO4 [ARTEMISININ] | 75.5 | 72 | 76 | 78.5 | 77.2 | 493
11 | C[C@H]1[C@@H](OCCC#Cc2ccc(F)nc2)O[C@@H]2O[C@@]3(C)CC[C@H]4[C@H](C)CC[C@@H]1[C@@]24OO3 | 63.9 | 62.4 | 65 | 67.8 | 66.4 | 20.9
12 | C#CCO[C@H]1O[C@@H]2O[C@@]3(C)CC[C@H]4[C@H](C)CC[C@@H]([C@H]1C)[C@@]24OO3 | 66.4 | 64.8 | 68.8 | 72 | 70.2 | –
